Test results taken from US10800791B2, “Triazole ACC inhibitors and uses thereof” (Gilead Apollo, LLC, priority 2015, dated 2020).
Converted amounts (≈) assume the structure as drawn. Read-outs that look alike come from different tables or passages of the source.

How the values were obtained:
[1] = target: human (hACC2) (Homo sapiens, UniProt O00763); test: In vitro ACC inhibition assay (ADP-Glo), hACC2; format: biochemical; settings: 5 nM ACC2, 20 μM ATP, 20 μM acetyl-CoA
Procedure: The detailed procedure is as follows. […] 10 μL ADP glo reagent was added. […] 20 μL kinase detection reagent was added.

[2] = test system: C. albicans; test: Antifungal Activity Assay (broth microtiter MIC), C. albicans; format: cell-based, Candida albicans; settings: Candida albicans, ATCC90028, 48 h, ATCC 90028, 3 replicates, MIC recorded at 48 h, read-out: MIC, C. albicans ATCC 90028
Procedure: (§1) Compounds of the present invention were evaluated in an Antifungal Activity Assay. An exemplary procedure for the assay, which measures the susceptibility of various Candida species to antifungal compounds, follows. Compounds to be tested (including fluconazole and amphotericin B) were dissolved in DMSO to obtain a solution having a concentration of 1 mg/mL. These stock solutions were sterile filtered using a 0.22 um nylon syringe filter, then diluted in sterile water to achieve a final concentration of 128 μg/mL.
(§2) All species were grown from frozen stock by directly plating on to freshly prepared Sabouraud Dextrose agar (BD, Difco) and incubated overnight in ambient air at 35° C. for 24 h. A direct suspension was prepared in RPMI 1640+MOPS (Lonza, Biowhittaker) by taking individual colonies from the overnight cultures using sterile swabs soaked in sterile saline. The concentration of the suspension was determined using pre-determined standard curves. These suspensions were then diluted down to 5×10^3 CFU/mL to achieve a final concentration of 2.5×10^3 CFU/mL once added to the microtiter plate as per CLSI guidelines (M27-A3, Vol. 28 No. 14).
(§3) Broth microtiter MIC challenge plates were prepared following CLSI guidelines (M27-A3, Vol. 28 No. 14). The original CLSI guidelines focused on reading Candida MICs after 48 h of incubation. As reading after only 24 h offers a clear advantage of patient care, QC limits are being established for all drugs at 24 h. That being said there are no known interpretive breakpoints for amphotericin B at 24 h and the current fluconazole interpretive breakpoints are based on a 48 h reading. The MICs for the test compounds were recorded at 48 h. All MIC determinations were achieved by visually comparing the growth found in the antibiotic challenged wells to that of the growth control.

[3] = test system: C. krusei; test: Antifungal Activity Assay (broth microtiter MIC), C. krusei; format: cell-based, Candida krusei; settings: Pichia kudriavzevii, ATCC6258, 48 h, ATCC 6258, 3 replicates, MIC recorded at 48 h, read-out: MIC, C. krusei ATCC 6258
Procedure: as §1, §2, §3

[4] = test system: C. parapsilosis; test: Antifungal Activity Assay (broth microtiter MIC), C. parapsilosis; format: cell-based, Candida parapsilosis; settings: Lodderomyces parapsilosis, ATCC22019, 48 h, ATCC 22019, 3 replicates, MIC recorded at 48 h, read-out: MIC, C. parapsilosis ATCC 22019
Procedure: as §1, §2, §3

[5] = target: fungal (fACC2) (UniProt Q00955); settings: read-out: fACC2 (in vitro ACC2 Inhibition Assay, IC50), ADP-Glo, 5 nM ACC2, 20 μM ATP, 20 μM acetyl-CoA
fungal (fACC2), sequence (Q00955 whole entry): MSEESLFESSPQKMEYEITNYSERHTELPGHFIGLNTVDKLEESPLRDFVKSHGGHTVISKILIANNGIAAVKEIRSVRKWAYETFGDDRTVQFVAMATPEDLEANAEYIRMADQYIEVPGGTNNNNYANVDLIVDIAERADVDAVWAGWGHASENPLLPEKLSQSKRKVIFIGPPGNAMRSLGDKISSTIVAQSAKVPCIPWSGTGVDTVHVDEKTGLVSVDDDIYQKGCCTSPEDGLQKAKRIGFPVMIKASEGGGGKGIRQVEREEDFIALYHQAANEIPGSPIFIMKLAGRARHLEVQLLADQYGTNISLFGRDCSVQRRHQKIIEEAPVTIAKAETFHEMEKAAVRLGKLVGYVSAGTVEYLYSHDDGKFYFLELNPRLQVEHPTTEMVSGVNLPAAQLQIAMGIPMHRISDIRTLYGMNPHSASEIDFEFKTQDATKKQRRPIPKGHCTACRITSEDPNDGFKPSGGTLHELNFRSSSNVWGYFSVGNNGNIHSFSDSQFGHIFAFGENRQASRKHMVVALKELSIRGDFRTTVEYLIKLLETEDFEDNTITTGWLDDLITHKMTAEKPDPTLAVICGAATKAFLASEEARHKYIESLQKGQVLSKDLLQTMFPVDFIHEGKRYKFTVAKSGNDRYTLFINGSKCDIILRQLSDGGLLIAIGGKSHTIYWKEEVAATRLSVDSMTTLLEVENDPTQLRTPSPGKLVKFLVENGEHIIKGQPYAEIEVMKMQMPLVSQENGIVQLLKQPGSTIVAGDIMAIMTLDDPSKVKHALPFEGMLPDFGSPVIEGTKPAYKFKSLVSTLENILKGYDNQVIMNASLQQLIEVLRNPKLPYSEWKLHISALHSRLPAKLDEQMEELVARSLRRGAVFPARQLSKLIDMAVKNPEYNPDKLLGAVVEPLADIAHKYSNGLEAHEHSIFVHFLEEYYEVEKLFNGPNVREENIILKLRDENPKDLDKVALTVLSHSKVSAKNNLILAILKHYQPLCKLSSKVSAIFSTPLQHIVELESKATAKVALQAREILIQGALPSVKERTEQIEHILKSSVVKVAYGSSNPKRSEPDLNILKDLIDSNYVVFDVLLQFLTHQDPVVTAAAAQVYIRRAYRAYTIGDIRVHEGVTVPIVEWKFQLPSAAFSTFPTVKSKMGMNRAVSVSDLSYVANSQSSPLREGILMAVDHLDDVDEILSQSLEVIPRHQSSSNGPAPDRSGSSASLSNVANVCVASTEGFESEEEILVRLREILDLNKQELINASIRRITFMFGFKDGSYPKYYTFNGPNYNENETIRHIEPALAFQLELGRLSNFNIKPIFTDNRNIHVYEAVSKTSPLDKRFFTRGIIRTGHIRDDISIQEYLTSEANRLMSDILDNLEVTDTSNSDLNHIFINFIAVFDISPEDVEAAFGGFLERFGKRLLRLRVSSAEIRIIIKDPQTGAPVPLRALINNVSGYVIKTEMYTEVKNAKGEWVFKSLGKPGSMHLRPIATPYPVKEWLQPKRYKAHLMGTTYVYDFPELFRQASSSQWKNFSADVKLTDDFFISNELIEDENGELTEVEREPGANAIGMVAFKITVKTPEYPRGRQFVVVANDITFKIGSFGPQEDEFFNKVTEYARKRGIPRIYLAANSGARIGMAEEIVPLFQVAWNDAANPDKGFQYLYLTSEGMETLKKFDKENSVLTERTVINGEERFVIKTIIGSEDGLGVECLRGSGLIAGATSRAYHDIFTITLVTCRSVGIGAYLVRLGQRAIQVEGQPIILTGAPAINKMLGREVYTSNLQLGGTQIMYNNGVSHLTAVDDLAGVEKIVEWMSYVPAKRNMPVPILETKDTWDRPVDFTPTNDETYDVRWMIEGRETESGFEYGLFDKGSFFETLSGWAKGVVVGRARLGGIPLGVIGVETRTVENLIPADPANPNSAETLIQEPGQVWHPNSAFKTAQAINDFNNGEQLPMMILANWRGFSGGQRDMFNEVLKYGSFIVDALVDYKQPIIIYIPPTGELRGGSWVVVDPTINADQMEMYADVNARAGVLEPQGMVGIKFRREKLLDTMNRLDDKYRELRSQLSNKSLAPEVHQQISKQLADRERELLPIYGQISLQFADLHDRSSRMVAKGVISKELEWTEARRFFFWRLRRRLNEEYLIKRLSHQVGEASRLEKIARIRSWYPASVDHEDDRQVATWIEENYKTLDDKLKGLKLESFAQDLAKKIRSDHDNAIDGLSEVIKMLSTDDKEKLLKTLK

human (hACC2), sequence (O00763 whole entry): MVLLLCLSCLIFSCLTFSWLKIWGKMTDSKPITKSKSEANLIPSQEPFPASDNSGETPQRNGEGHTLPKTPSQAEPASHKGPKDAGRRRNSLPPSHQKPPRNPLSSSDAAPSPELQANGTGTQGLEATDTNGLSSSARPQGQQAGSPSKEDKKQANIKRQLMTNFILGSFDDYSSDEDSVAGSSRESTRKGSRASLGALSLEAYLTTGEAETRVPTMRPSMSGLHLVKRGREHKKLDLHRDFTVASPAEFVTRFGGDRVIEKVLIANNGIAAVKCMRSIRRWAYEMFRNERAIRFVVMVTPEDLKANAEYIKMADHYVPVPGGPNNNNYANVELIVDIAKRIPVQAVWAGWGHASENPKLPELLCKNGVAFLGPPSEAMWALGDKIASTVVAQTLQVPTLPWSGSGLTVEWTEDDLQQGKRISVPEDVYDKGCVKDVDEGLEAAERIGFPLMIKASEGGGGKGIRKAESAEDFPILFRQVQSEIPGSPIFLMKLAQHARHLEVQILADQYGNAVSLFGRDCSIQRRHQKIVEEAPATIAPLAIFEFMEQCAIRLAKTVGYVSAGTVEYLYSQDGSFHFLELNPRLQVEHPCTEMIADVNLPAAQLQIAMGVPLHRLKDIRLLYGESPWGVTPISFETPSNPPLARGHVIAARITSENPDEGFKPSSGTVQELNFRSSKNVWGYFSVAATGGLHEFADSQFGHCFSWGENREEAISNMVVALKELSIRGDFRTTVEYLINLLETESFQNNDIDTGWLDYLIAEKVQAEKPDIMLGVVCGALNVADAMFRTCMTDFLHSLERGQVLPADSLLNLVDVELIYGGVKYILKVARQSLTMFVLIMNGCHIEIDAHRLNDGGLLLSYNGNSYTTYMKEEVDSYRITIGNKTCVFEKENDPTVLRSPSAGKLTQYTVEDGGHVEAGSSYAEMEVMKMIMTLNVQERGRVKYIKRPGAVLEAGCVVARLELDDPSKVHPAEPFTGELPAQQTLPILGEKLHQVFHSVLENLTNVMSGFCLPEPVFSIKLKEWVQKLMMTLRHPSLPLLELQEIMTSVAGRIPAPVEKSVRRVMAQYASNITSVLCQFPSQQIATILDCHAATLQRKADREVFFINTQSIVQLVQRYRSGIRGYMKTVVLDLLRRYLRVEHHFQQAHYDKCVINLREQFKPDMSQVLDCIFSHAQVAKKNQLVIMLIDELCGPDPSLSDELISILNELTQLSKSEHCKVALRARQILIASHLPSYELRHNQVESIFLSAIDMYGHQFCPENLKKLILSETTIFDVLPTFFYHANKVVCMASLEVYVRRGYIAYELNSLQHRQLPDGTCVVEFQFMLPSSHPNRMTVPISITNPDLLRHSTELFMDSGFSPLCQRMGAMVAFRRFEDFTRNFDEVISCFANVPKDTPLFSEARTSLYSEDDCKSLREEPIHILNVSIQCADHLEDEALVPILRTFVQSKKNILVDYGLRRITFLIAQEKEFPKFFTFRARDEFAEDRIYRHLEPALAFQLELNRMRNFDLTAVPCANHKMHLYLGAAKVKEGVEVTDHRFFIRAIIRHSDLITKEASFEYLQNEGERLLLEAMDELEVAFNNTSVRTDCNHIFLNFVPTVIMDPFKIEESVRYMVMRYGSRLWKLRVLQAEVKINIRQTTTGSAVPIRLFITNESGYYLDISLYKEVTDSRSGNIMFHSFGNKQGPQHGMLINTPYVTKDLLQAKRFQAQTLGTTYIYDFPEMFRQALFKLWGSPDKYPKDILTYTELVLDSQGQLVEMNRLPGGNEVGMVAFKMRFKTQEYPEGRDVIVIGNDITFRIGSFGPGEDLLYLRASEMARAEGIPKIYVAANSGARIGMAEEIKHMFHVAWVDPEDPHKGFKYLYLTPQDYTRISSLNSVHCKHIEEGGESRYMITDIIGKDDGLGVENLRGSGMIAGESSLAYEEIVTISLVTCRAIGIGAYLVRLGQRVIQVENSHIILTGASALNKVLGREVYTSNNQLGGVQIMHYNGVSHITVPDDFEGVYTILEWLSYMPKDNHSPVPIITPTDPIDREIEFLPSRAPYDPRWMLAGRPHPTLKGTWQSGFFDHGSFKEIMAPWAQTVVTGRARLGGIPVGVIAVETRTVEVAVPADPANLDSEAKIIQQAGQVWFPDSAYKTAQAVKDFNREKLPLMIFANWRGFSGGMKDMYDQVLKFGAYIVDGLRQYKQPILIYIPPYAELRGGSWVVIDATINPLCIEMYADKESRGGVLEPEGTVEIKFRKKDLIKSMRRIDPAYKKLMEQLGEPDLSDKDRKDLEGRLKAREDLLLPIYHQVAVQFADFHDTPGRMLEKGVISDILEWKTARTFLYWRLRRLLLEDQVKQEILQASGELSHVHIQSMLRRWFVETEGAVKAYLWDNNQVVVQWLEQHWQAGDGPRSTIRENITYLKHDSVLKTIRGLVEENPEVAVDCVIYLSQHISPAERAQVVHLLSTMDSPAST

SMILES	IC50 ([1]; Table 2a) [nM]	IC50 ([1]; Table 2b, additional results) [nM]	MIC ([2]; Table 3a) [µg/mL]	MIC ([2]; Table 3b (additional results)) [µg/mL]	MIC ([3]; Table 3a) [µg/mL]	MIC ([3]; Table 3b (additional results)) [µg/mL]	MIC ([4]; Table 3a) [µg/mL]	MIC ([4]; Table 3b (additional results)) [µg/mL]	IC50 ([5]; Table 2a) [nM]	IC50 ([5]; Table 2b, additional results) [nM]
COc1ccc(F)cc1[C@H](Cn1c(=O)n(C(C)(C)C(=O)N2CC=CC2)c(=O)c2c(C)c(-n3nccn3)sc21)OCC(C)O (stereo partly shown) [Compound I-121]	1 to 5	1 to 5	1.1 to 2 (≈ 1.8 to 3.26 µM)	1.01 to 2 (≈ 1.65 to 3.26 µM)	0.25 to 1 (≈ 0.408 to 1.63 µM)	> 4.01	1.1 to 2 (≈ 1.8 to 3.26 µM)	2.01 to 4 (≈ 3.28 to 6.53 µM)	1 to 5	1 to 5
COCCOc1ccc(F)cc1[C@H](Cn1c(=O)n(C(C)(C)C(=O)NC(C)C)c(=O)c2c(C)c(-n3nccn3)sc21)OCCOC [Compound I-122]	10 to 40	10 to 40	2.1 to 4 (≈ 3.25 to 6.18 µM)	2.01 to 4 (≈ 3.11 to 6.18 µM)	0.25 to 1 (≈ 0.387 to 1.55 µM)	1.01 to 2 (≈ 1.56 to 3.09 µM)	1.1 to 2 (≈ 1.7 to 3.09 µM)	1.01 to 2 (≈ 1.56 to 3.09 µM)	1 to 5	1 to 5
COc1ccc(F)cc1[C@H](Cn1c(=O)n(C(C)(C)C(N)=O)c(=O)c2c(C)c(-n3nccn3)sc21)OCCC(=O)C(F)(F)F [Compound I-123]	10 to 40	10 to 40	2.1 to 4 (≈ 3.35 to 6.38 µM)	> 4.01	1.1 to 2 (≈ 1.76 to 3.19 µM)	> 4.01	2.1 to 4 (≈ 3.35 to 6.38 µM)	> 4.01	1 to 5	1 to 5
CCc1ccc(F)cc1[C@H](Cn1c(=O)n(C(C)(C)C(=O)O)c(=O)c2c(C)c(-n3nccn3)sc21)OCCO [Compound I-125]	1 to 5	1 to 5	2.1 to 4 (≈ 3.85 to 7.33 µM)	> 4.01	2.1 to 4 (≈ 3.85 to 7.33 µM)	> 4.01	2.1 to 4 (≈ 3.85 to 7.33 µM)	> 4.01	1 to 5	0.3 to 1
COCCO[C@@H](Cn1c(=O)n(C(C)(C)C(=O)OC(C)C)c(=O)c2c(C)c(-n3nccn3)sc21)c1cc(F)ccc1OC [Compound I-127]	10 to 40	10 to 40	1.1 to 2 (≈ 1.82 to 3.31 µM)	2.01 to 4 (≈ 3.33 to 6.63 µM)	0.25 to 1 (≈ 0.414 to 1.66 µM)	2.01 to 4 (≈ 3.33 to 6.63 µM)	1.1 to 2 (≈ 1.82 to 3.31 µM)	> 4.01	1 to 5	1 to 5
COCCO[C@@H](Cn1c(=O)n(C(C)(C)C(=O)OC2CCC2)c(=O)c2c(C)c(-n3nccn3)sc21)c1cc(F)ccc1OC [Compound I-128]	10 to 40	10 to 40	2.1 to 4 (≈ 3.41 to 6.5 µM)	> 4.01	1.1 to 2 (≈ 1.79 to 3.25 µM)	2.01 to 4 (≈ 3.26 to 6.5 µM)	2.1 to 4 (≈ 3.41 to 6.5 µM)	2.01 to 4 (≈ 3.26 to 6.5 µM)	1 to 5	1 to 5
COc1ccc(F)cc1[C@H](Cn1c(=O)n(C(C)(C)C(=O)OC(C)C)c(=O)c2c(C)c(-n3nccn3)sc21)OCCO [Compound I-129]	1 to 5	1 to 5	1.1 to 2 (≈ 1.87 to 3.39 µM)	1.01 to 2 (≈ 1.71 to 3.39 µM)	0.25 to 1 (≈ 0.424 to 1.7 µM)	0.25 to 1 (≈ 0.424 to 1.7 µM)	0.25 to 1 (≈ 0.424 to 1.7 µM)	> 4.01	1 to 5	1 to 5
